Tests used:
MC38 tumor = assay: Established MC38 tumor treatment in C57BL/6 mice (tumor volume, regression); assay type: in vivo; conditions: first batch of MC38 experiments; CFI-400945 6.5 mg/kg once daily for 21 days, alone (FIG. 2C) or with anti-PD-1 antibody 150 μg Days 0, 3, 6, 10 (FIG. 2D)
Method: (§1) BALB/cJ mice were inoculated subcutaneously with 1×10^6 CT26 cells, and C57BL/6 mice were inoculated subcutaneously with 0.5×10^6 MC38 cells. The mice were then randomized. Animal weights were monitored daily, and tumor volume was measured three times per week.
(§2) […] was defined as 100×[1−TVf,treated−TVi,treated)/(TVf,control−TVi,control)], where TVf is the average tumor volume at the end of study and TVi is the average tumor volume at the end initiation of treatment. In cases in which tumor regression occurred, percentage of tumor regression was defined as 100×[1−(TVf,treated/TVi,treated)]. At the completion of each study, the mice were killed by an anesthetic overdose, and tumor tissue was removed for further analysis.
Treatments were initiated when tumor volumes reached an average size of ˜60 mm^3. To treat an established CT26 or MC38 tumor, the animals were first assigned into groups, i.e., the control group receiving rat IgG2a isotype control, the group receiving the compound CFI-400945 monotherapy, the group receiving the rat IgG2a anti-PD-1 antibody monotherapy and the group receiving the combination therapy. […]

CT26 tumor = assay: Established CT26 tumor treatment in BALB/cJ mice (tumor volume, regression); assay type: in vivo
Method: as §1, §2
Treatments were initiated when tumor volumes reached an average size of ˜60 mm^3. To treat an established CT26 or MC38 tumor, the animals were first assigned into groups, i.e., the control group receiving rat IgG2a isotype control, the group receiving the compound CFI-400945 monotherapy, the group receiving the rat IgG2a anti-PD-1 antibody monotherapy and the group receiving the combination therapy.
The compound CFI-400945 and the vehicle (water) were administered by oral gavage (PO), at one of the following dosages: (i) 6.5 mg/kg once daily (QD) for 21 days; (ii) 13 mg/kg twice a week (BIW or 2 on/5 off) for 21 days; (iii) 52 mg/kg once weekly (QW) for 21 days; and (iv) 104 mg/kg in two doses, i.e., on Days 0 and 14.
(§3) The anti-PD-1 antibody or the isotype control were administered by intraperitoneal (IP) injection. 150 μg anti-PD-1 antibody was administered in four doses, i.e., on Days 0, 3, 6 and 10.

CT26 cells = assay: Re-challenge by inoculation with CT26 cells on Day 36 of animals with complete regression; assay type: in vivo, BALB/cJ mice
Method: Further to the tumor volume measurements, the animals in which complete regression had occurred as described above, either by CFI-400945 monotherapy or by IgG2a anti-PD-1 antibody-CFI-400945 combination therapy, were re-challenged by inoculation with CT26 cells on Day 36, as shown in FIGS. 1D (6.5 mg/kg QD CFI-400945+anti-PD-1 antibody), 1E (13 mg/kg BIW CFI-400945), 1F (13 mg/kg BIW CFI-400945+anti-PD-1 antibody), 1G (52 mg/kg QW CFI-400945), 1H (52 mg/kg QW CFI-400945+anti-PD-1 antibody) and 1J (104 mg/kg CFI-400945 on Days 0 and 14+anti-PD-1 antibody).

[1] = Tolerability in the CT26 tumor study (body weight, animal death); assay type: in vivo
Method: as §1, §3

[2] = CFI-400945 104 mg/kg PO on Days 0 and 14

Structure (SMILES): COc1ccc2c(c1)[C@]1(C[C@H]1c1ccc3c(/C=C/c4ccc(CN5C[C@@H](C)O[C@@H](C)C5)cc4)n[nH]c3c1)C(=O)N2 [CFI-400945]
- regression of MC38 tumors (MC38 tumor): Regression was also observed
- complete regression of CT26 tumors (CT26 tumor; CFI-400945 6.5 mg/kg PO once daily for 21 days, alone (FIG. 1C) or with anti-PD-1 antibody 150 μg IP Days 0, 3, 6, 10 (FIG. 1D)): no instances in which complete regression was observed
- CT26 tumor growth (CT26 tumor; CFI-400945 6.5 mg/kg PO once daily for 21 days, single agent (FIG. 1C)): tumor growth delay
- CT26 tumors with regression (CT26 tumor; CFI-400945 13 mg/kg PO twice a week for 21 days, alone (FIG. 1E) or with anti-PD-1 antibody 150 μg IP Days 0, 3, 6, 10 (FIG. 1F)): one of the eight
- CT26 tumors with regression (CT26 tumor; CFI-400945 52 mg/kg PO once weekly for 21 days, alone (FIG. 1G) or with anti-PD-1 antibody 150 μg IP Days 0, 3, 6, 10 (FIG. 1H)): one of the eight
- tumor growth after re-challenge with CT26 cells on Day 36 (CT26 cells; animals with complete regression after CFI-400945 13 mg/kg BIW, alone (FIG. 1E) or + anti-PD-1 antibody (FIG. 1F)): tumors did not grow in any mouse
- tumor growth after re-challenge with CT26 cells on Day 36 (CT26 cells; animals with complete regression after CFI-400945 52 mg/kg QW, alone (FIG. 1G) or + anti-PD-1 antibody (FIG. 1H)): tumors did not grow in any mouse
- tolerability of dosage ([1]; CFI-400945 6.5 mg/kg PO daily for 21 days): well-tolerated
- body weight loss or animal death ([1]; CFI-400945 6.5 mg/kg PO daily for 21 days, data not shown): lack of any significant body weight loss (data not shown) or any animal death
- tolerability of dosage ([1]; CFI-400945 13 mg/kg PO twice a week for 21 days): well-tolerated
- tolerability of dosage ([1]; CFI-400945 52 mg/kg PO once weekly for 21 days): well-tolerated
- animals found dead [1, 2]: two
- tolerability of dosage [1, 2]: not be well-tolerated

Source: US12109215B2, “Combination therapies for inhibition of polo-like kinase 4” (UNIVERSITY HEALTH NETWORK, priority 2017, dated 2024)
